Read-outs that look alike come from different tables or passages of the source. Starred links: 1 amine or outer side, 2 acyl side, 3 side chain; linkers in the order of their positions; H or OH if unused. Non-standard residues stand in square brackets, D forms with d. Residues, ends and D or L forms follow the SMILES beside them. *: point of attachment. Fmoc = O=C(OCC1c2ccccc2-c2ccccc21)*; d(aThr) = C[C@@H](O)[C@@H](N)C(=O)O; Hydrocinnamoyl = O=C(CCc1ccccc1)*; ΔPro = O=C(O)[C@@H]1C=CCN1; Isovaleryl = CC(C)CC(=O)*; NMeA = CN[C@@H](C)C(=O)O; dDap = NC[C@@H](N)C(=O)O; Cbz = O=C(OCc1ccccc1)*; CO = O=C([*:1])[*:2]; NHBn = c1ccc(CN*)cc1; Sar = CNCC(=O)O; Moc = COC(=O)*
Experiments:
[1] = molecular target: T1, Human rt-PA (Activase) (Homo sapiens, UniProt P00750); assay: Recombinant tissue plasminogen activator (rt-PA) chromogenic assay; assay type: biochemical; settings: 30 minute preincubation, HBSA buffer; read-out: tPA IC50
T1 construct: purchased Genentech Inc
Description: rt-PA catalytic activity was determined using the substrate, Pefachrome t-PA (CH3SO2-D-hexahydrotyrosine-glycyl-L-arginine-p-nitroaniline, obtained from Pentap harm Ltd.). The substrate was made up in deionized water followed by dilution in HBSA prior to the assay in which the final concentration was 500 micromolar (about 3-times Km). Human rt-PA (Activase®) was obtained from Genentech Inc. The enzyme was reconstituted in deionized water and diluted into HBSA prior to the assay in which the final concentration was 1.0 nM.

[2] = molecular target: T2, human plasmin (Homo sapiens, UniProt P00747); assay: Plasmin chromogenic substrate (S-2366) assay; assay type: biochemical; settings: 30 minute preincubation, HBSA buffer
T2 construct: purchased Enzyme Research Laboratories, Inc
Description: The substrate was made up in deionized water followed by dilution in HBSA prior to the assay in which the final concentration was 300 micromolar (about 2.5-times Km). Purified human plasmin was obtained from Enzyme Research Laboratories, Inc. The enzyme was diluted into HBSA prior to assay in which the final concentration was 1.0 nM.

[3] = molecular target: Urokinase (Abbokinase) (Homo sapiens, UniProt P00749); assay: Urokinase chromogenic substrate (S-2444) IC50 assay
Description: The buffer used for all assays was HBSA (10 mM HEPES, pH 7.5, 150 mM sodium chloride, 0.1% bovine serum albumin).
The initial velocity of chromogenic substrate hydrolysis was measured by the change in absorbance at 405 nm using a Thermo Max® Kinetic Microplate Reader over a 5 minute period in which less than 5% of the added substrate was utilized.
The assay buffer was HBS (10mM HEPES, 150mM sodium chloride pH 7.4) with 0.1% BSA.

[4] = read-out: uPA IC50, 30 minute preincubation, HBSA buffer

T1 sequence (P00750 36-562): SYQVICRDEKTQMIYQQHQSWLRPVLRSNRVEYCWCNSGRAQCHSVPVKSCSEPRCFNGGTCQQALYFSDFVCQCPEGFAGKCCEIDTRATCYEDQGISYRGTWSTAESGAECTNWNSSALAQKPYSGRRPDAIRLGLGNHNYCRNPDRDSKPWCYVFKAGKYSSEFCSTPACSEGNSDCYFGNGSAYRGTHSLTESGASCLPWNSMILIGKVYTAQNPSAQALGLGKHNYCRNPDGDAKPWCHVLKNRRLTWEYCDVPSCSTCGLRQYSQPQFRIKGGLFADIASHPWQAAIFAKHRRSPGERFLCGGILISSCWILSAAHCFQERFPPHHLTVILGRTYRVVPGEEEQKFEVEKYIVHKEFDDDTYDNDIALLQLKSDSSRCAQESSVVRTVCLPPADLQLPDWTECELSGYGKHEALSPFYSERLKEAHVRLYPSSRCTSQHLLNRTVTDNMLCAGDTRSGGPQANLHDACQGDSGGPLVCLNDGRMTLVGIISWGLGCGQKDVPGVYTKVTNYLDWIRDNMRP
T2 sequence (P00747 581-810 limits assumed): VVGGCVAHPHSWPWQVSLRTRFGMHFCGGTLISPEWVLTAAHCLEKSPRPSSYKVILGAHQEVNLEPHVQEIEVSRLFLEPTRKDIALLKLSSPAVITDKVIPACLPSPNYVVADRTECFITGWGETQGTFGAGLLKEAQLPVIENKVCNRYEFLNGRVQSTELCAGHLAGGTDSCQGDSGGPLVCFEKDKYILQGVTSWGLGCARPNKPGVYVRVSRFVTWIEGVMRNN
T2 sequence (P00747 97-580 partner limits assumed): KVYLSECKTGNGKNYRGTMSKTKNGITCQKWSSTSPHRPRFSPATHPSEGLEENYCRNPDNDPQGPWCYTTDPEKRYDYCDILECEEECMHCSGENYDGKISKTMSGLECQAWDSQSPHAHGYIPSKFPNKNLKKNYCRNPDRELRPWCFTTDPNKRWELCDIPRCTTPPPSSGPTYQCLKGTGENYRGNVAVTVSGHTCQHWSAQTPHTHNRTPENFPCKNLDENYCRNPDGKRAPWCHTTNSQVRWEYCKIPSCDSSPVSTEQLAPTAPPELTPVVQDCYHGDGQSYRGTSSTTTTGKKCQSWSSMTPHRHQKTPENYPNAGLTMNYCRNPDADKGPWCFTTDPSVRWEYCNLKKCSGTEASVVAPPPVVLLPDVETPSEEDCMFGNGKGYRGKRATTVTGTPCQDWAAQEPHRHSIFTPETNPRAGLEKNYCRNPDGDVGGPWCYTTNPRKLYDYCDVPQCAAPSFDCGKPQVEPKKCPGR

SMILES | IC50 [1] [µM] | IC50 [2] [µM] | IC50 [3] [µM] | IC50 [3, 4] [µM]
C[C@H](NC(=O)[C@@H](CNC(=O)CCc1ccccc1)NC(=O)OCc1ccccc1)C(=O)N[C@H](C=O)CCCNC(=N)N [Compound 41, N-α-benzyloxycarbonyl-N-β-2-phenylethylcarbonyl-D-2,3-diaminopropionyl-alanyl-argininal] (Cbz-[dDap](Hydrocinnamoyl)-Ala-Arg-aldehyde) | > 2.5 | 0.25 to 2.5 | 0.25 to 2.5 | 
C[C@H](NC(=O)[C@@H](CO)NC(=O)NCC1CCCCC1)C(=O)N[C@H](C=O)CCCNC(=N)N [Compound 37, cyclohexylmethylazacarbonyl-D-seryl-alanyl-argininal] | > 2.5 | > 2.5 | 0.1 to 0.25 | 
CCCCOC(=O)N[C@H](CO)C(=O)N[C@@H](C)C(=O)N[C@H](C=O)CCCNC(=N)N [Compound 9, n-butyloxycarbonyl-D-seryl-alanyl-argininal] | > 2.5 |  | < 0.1 | 
C[C@H](NC(=O)[C@@H](CO)NC(=O)NCc1ccccc1)C(=O)N[C@H](C=O)CCCNC(=N)N [Compound 38, benzylazacarbonyl-D-seryl-alanyl-argininal] ({NHBn-CO}-[dS]-Ala-Arg-aldehyde) | > 2.5 | > 2.5 | 0.1 to 0.25 | 
C[C@H](NC(=O)[C@@H](CO)NC(=O)Oc1ccc2ccccc2c1)C(=O)N[C@H](C=O)CCCNC(=N)N [Compound 4, 2-naphthyloxy-carbonyl-D-seryl-alanyl-argininal] | > 2.5 |  | < 0.1 | 
N=C(N)NCCC[C@@H](C=O)NC(=O)[C@@H]1C=CCN1C(=O)[C@@H](CO)NC(=O)OCc1ccccc1 [Compound 50, benzyloxycarbonyl-D-seryl-L-3,4-dehydroprolyl-argininal] (Cbz-[dS]-[ΔPro]-Arg-aldehyde) | > 2.5 | 0.1 to 0.25 | < 0.1 | 
C[C@H](NC(=O)[C@@H](C)NC(=O)OCc1ccccc1)C(=O)N[C@H](C=O)CCCNC(=N)N [Compound 21, benzyloxycarbonyl-D-alanyl-alanyl-argininal] (Cbz-[dA]-Ala-Arg-aldehyde) |  |  | 0.1 to 0.25 | 
CC(C)CC(=O)N[C@H](CO)C(=O)N[C@@H](C)C(=O)N[C@H](C=O)CCCNC(=N)N [Compound 39, isovaleryl-D-seryl-alanyl-argininal] (Isovaleryl-[dS]-Ala-Arg-aldehyde) | > 2.5 | > 2.5 | 0.25 to 2.5 | 
C[C@H](NC(=O)[C@@H](NC(=O)OCc1ccccc1)[C@@H](C)O)C(=O)N[C@H](C=O)CCCNC(=N)N [Compound 20, benzyloxycarbonyl-threonyl-alanyl-argininal] (Cbz-Thr-Ala-Arg-aldehyde) | > 2.5 |  | 0.1 to 0.25 | 
N=C(N)NCCC[C@@H](C=O)NC(=O)[C@H](CO)NC(=O)[C@@H](CO)NC(=O)OCc1ccccc1 [Compound 45, benzyloxycarbonyl-D-seryl-L-seryl-argininal] (Cbz-[dS]-Ser-Arg-aldehyde) | > 2.5 | 0.25 to 2.5 | 0.1 to 0.25 | 
C[C@H](NC(=O)[C@@H](CO)NC(=O)CCC1CCCCC1)C(=O)N[C@H](C=O)CCCNC(=N)N [Compound 35, 3-cyclohexylpropionyl-D-seryl-alanyl-argininal] | > 2.5 | > 2.5 | 0.25 to 2.5 | 
CC1CCC(C(C)C)C(OC(=O)N[C@H](CO)C(=O)N[C@@H](C)C(=O)N[C@H](C=O)CCCNC(=N)N)C1 (single isomer, unassigned; (-)) [Compound 3, (−)menthyloxy-carbonyl-D-seryl-alanyl-argininal] | > 2.5 |  |  | < 0.1
CN(CC(=O)N[C@H](C=O)CCCNC(=N)N)C(=O)[C@@H](CO)NC(=O)OCc1ccccc1 [Compound 18, benzyloxycarbonyl-D-seryl-sarcosyl-argininal] (Cbz-[dS]-[Sar]-Arg-aldehyde) | > 2.5 |  | 0.25 to 2.5 | 
COC(=O)N[C@H](CO)C(=O)N[C@@H](C)C(=O)N[C@H](C=O)CCCNC(=N)N [Compound 8, methyloxycarbonyl-D-seryl-alanyl-argininal] (Moc-[dS]-Ala-Arg-aldehyde) | > 2.5 |  | < 0.1 | 
CC(C)OC(=O)N[C@H](CO)C(=O)N[C@@H](C)C(=O)N[C@H](C=O)CCCNC(=N)N [Compound 40, isopropyloxycarbonyl-D-seryl-alanyl-argininal] | > 2.5 | > 2.5 | < 0.1 | 
CC(C)COC(=O)N[C@H](CO)C(=O)N[C@@H](C)C(=O)NC(CCCN=C(N)N)C(=O)C(=O)NCCc1ccccc1 (stereo partly drawn) [Compound 30, i-butoxycarbonyl-D-Ser-Ala-Arg-CO-phenethylamide] | > 2.5 | 0.25 to 2.5 |  | 0.1 to 0.25
N=C(N)NCCCC(C=O)NC(=O)CNC(=O)[C@@H](CO)NC(=O)OCc1ccccc1 (some centres unmarked) [Compound 17] | > 2.5 |  | 0.1 to 0.25 | 

SMILES | IC50 [1] [µM] | IC50 [2] [µM] | IC50 [3] [µM] | IC50 [3, 4] [µM]
C[C@H](NC(=O)[C@@H](CNC(=O)OCc1ccccc1)NC(=O)OCc1ccccc1)C(=O)N[C@H](C=O)CCCNC(=N)N [Compound 42, N-α-N-β-dibenzyloxycarbonyl-D-2,3-diaminopropionyl-alanyl-argininal] (Cbz-[dDap](Cbz)-Ala-Arg-aldehyde) | > 2.5 | 0.1 to 0.25 | 0.1 to 0.25 | 
C[C@H](NC(=O)[C@@H](CO)NCCCc1ccccc1)C(=O)N[C@H](C=O)CCCNC(=N)N [Compound 32, N-α-(3-Phenylpropyl)-D-seryl-alanyl-argininal] | > 2.5 | 0.25 to 2.5 |  | < 0.1
C[C@H](NC(=O)[C@H](CO)NC(=O)OCc1ccccc1)C(=O)N[C@H](C=O)CCCNC(=N)N [Compound 23, benzyloxycarbonyl-seryl-alanyl-argininal] (Cbz-Ser-Ala-Arg-aldehyde) | > 2.5 |  | 0.25 to 2.5 | 
C[C@@H](O)[C@@H](NC(=O)OCc1ccccc1)C(=O)N(C)[C@@H](C)C(=O)N[C@H](C=O)CCCNC(=N)N [Compound 25, benzyloxycarbonyl-D-allothreonyl-N-methylalanyl-argininal] (Cbz-[d(aThr)]-[NMeA]-Arg-aldehyde) |  |  | 0.1 to 0.25 | 
N=C(N)NCCC[C@@H](C=O)NC(=O)[C@@H]1CCCCN1C(=O)[C@@H](CO)NC(=O)OCc1ccccc1 [Compound 13] | > 2.5 |  | 0.1 to 0.25 | 
CCCCC(CC)COC(=O)N[C@H](CO)C(=O)N[C@@H](C)C(=O)N[C@H](C=O)CCCNC(=N)N (stereo partly drawn) [Compound 6, 2-ethylhexyloxy-carbonyl-D-seryl-alanyl-argininal] | > 2.5 |  | < 0.1 | 
CC[C@H](NC(=O)[C@@H](CO)NC(=O)OCc1ccccc1)C(=O)N[C@H](C=O)CCCNC(=N)N [Compound 14] | > 2.5 |  | < 0.1 | 
C[C@H](NC(=O)[C@@H](CO)NS(=O)(=O)Cc1ccccc1)C(=O)N[C@H](C=O)CCCN=C(N)N [Compound 29, Benzylsulfonyl-D-Ser-Ala-Arg-al] | > 2.5 | 0.25 to 2.5 |  | < 0.1
C[C@H](NC(=O)[C@@H](CO)NC(=O)OCC1c2ccccc2-c2ccccc21)C(=O)N[C@H](C=O)CCCNC(=N)N [Compound 10, Fluorenylmethyloxycarbonyl-D-seryl-alanyl-argininal] (Fmoc-[dS]-Ala-Arg-aldehyde) | > 2.5 |  | < 0.1 | 
CC1CCC(C(C)C)C(OC(=O)N[C@H](CO)C(=O)N[C@@H](C)C(=O)N[C@H](C=O)CCCNC(=N)N)C1 (single isomer, unassigned; (+)) [Compound 7, (+)menthyloxy-carbonyl-D-seryl-alanyl-argininal] | > 2.5 |  | < 0.1 | 
C[C@H](O)[C@@H](NC(=O)OCc1ccccc1)C(=O)N1CCC[C@H]1C(=O)N[C@H](C=O)CCCNC(=N)N [Compound 26, benzyloxycarbonyl-D-threonyl-prolyl-argininal] (Cbz-[dT]-Pro-Arg-aldehyde) | > 2.5 |  | 0.1 to 0.25 | 
N=C(N)NCCCC(C=O)NC(=O)C1CCN1C(=O)C(CO)NS(=O)(=O)c1ccccc1 [Compound 31, benzenesulfonyl-D-seryl-azetidyl-argininal] |  | 0.25 to 2.5 |  | < 0.1
C[C@@H](O)[C@@H](NC(=O)OCc1ccccc1)C(=O)N(C)CC(=O)N[C@H](C=O)CCCNC(=N)N [Compound 24, benzyloxycarbonyl-D-allothreonyl-sarcosyl-argininal] (Cbz-[d(aThr)]-[Sar]-Arg-aldehyde) |  |  | 0.1 to 0.25 | 
C[C@H](NC(=O)[C@@H](CO)NC(=O)Oc1ccccc1)C(=O)N[C@H](C=O)CCCNC(=N)N [Compound 5, phenoxycarbonyl-D-seryl-alanyl-argininal] | > 2.5 |  | < 0.1 | 
C[C@H](NC(=O)[C@H](NC(=O)OCc1ccccc1)[C@H](C)O)C(=O)N[C@H](C=O)CCCNC(=N)N [Compound 22, benzyloxycarbonyl-D-threonyl-alanyl-argininal] (Cbz-[dT]-Ala-Arg-aldehyde) | > 2.5 |  | 0.25 to 2.5 | 
CSC[C@H](NC(=O)[C@@H](CO)NC(=O)OCc1ccccc1)C(=O)N[C@H](C=O)CCCNC(=N)N [Compound 15, benzyloxycarbonyl-D-seryl-S-methylcysteinyl-argininal] (Cbz-[dS]-Cys(Me)-Arg-aldehyde) | > 2.5 |  | 0.1 to 0.25 | 
CCCC(NC(=O)[C@@H](CO)NC(=O)OCc1ccccc1)C(=O)NC(C=O)CCCNC(=N)N (some centres unmarked) [Compound 16] | > 2.5 |  | 0.1 to 0.25 | 
